From article PMC12005787, “Synthetic Lethality of SHP2 and XIAP Suppresses Proliferation and Metastasis in KRAS‐mutant Nonsmall Cell Lung Cancer” (Advanced Science, 2025)
Like-named read-outs stand apart in the source and are kept apart here. *1 amine or outer side, *2 acyl side, *3 side chain or, on linkers, in order; H or OH if unused. Where a SMILES comes first, the peptide text is derived from it. Bridges are numbered along the chain shown (N, C = ends). Roman numbers before positions name the chains, in order. [ ]: non-standard residue; d: D form. Hexamethylenediamine = C(CCCN[*:2])CCN[*:1]; Dip = N[C@H](C(=O)O)C(c1ccccc1)c1ccccc1; Chg = N[C@H](C(=O)O)C1CCCCC1; NMeA = CN[C@@H](C)C(=O)O

What was measured:
[1] = test system: NCI-H2122, A549, and NCI-H1944 cells; test: Cell senescence β-galactosidase staining; format: cell-based, human; details: NCI‐H2122 cells; candidate drugs 10 μM
Protocol: Cell senescence β-galactosidase staining
NCI-H2122, A549, and NCI-H1944 cells in the logarithmic growth phase were seeded into 48-well plates and cultured overnight. The supernatant was aspirated and fresh serum-free (0%), low-serum (3%), or regular serum (10%) medium with different drugs was added for 48 h. When the supernatant was discarded, β-galactosidase staining fixation fluid were added for 15 min and β-galactosidase staining solution were imported overnight at 37 ℃.
Finally, the staining results were recorded using an inverted microscope.

[2] = molecular target: T1, SHP2 (Homo sapiens, UniProt Q06124); test: Cellular thermal shift assay (CETSA); format: binding; details: NCI‐H2122 cell lysate
T1 construct: endogenous in cells; host or cells: NCI-H2122
T1 sequence (Q06124 1-593): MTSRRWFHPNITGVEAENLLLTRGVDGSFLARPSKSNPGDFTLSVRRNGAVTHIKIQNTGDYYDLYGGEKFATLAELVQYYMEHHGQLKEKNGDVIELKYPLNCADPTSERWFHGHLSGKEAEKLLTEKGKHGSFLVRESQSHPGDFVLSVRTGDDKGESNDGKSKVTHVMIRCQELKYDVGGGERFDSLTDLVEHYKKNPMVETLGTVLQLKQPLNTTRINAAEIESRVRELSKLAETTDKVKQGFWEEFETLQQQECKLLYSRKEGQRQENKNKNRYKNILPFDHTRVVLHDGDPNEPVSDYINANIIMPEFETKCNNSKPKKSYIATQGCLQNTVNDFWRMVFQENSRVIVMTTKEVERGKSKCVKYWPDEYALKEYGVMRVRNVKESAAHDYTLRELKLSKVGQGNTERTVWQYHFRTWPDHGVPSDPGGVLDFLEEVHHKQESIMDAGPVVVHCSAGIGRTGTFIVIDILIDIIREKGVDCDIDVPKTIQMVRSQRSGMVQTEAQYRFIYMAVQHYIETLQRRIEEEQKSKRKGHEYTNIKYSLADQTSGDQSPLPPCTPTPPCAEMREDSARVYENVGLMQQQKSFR
Protocol: NCI‐H2122 cells were harvested and resuspended with pre‐cooled PBS containing 1% cocktail, which was then frozen in liquid nitrogen for 5 min and thawed in a water bath at 37 °C for 5 min for three repetitions. The supernatant was collected via centrifugation at 4 °C (15 000 × g, 20 min), divided into two equal portions; one was added with test drugs or various concentrations of embelin, and the other was added with DMSO as control and subsequently incubated at 25 °C for 30 min. All samples were heated at temperatures ranging from 52–70 °C for 3 min, and subsequently in an ice bath for 3 min and collected by centrifugation at 4 °C (15 000 × g, 20 min), and added with protein sampling buffer at 100 °C for 5 min, followed by analysis of protein stability using western blotting.

[3] = test system: A549 and NCI‐H2122 cells; test: Cell proliferation in monolayer culture (CCK-8); format: cell-based, human
Protocol: For the adherent cell viability assay, cells in the logarithmic growth phase were seeded in 96-well culture plates at a density of 5×103 well-1 and incubated overnight. Diluted compounds or DMSO were added, or specific treatments were incubated at 37 °C and 5% CO2 for 24 h or 48 h. Cell viability was determined using CCK-8 or CellLightTM Cell Viability Assay Kit, according to the manufacturer's protocol. The luminescence signals of the treated samples were normalized to those of the DMSO group. […]
Figure S7. Targeting SHP2 and XIAP produces a synthetic lethal effect. (A) Effects of NSC-87877 on cell viability of A549 and NCI-H2122 cells after 24 and 48 h were determined using the CCK-8. Bars, ± SEM. The curves were plotted using a variable slope (four-parameter) non-linear fit. (B, E, F, and I) Effects of Na3VO4 (B), birinapant (E), BV-6 (F), and LCL161 (I) on cell viability of human NCI-H2122 cells at 48 h were determined using the CCK-8. *p < 0.05, **p < 0.01 and ***p < 0.001 compared to control group (unpaired two-tailed Student’s t-test).(C, G) Effects of SHP099 (C) and GDC-0152 (G) on cell viability after 24 and 48 h were determined using the CCK-8. Bars, ± SEM. The curves were plotted using a variable slope (four-parameter) non-linear fit.(D, H) Effects of SHP099 (D) and GDC-0152 (H) on cell viability were determined after 48 h using intracellular ATP chemiluminescence. **p < 0.01 and ***p < 0.001 compared to control group (unpaired two-tailed Student’s t-test).(J) Effects of SHP099 and GDC-0152 separately and in combination, and the effect of embelin for 24 h on the cell viability were assessed using intracellular ATP […]
tailed Student’s t-test).(K) Effects of SHP099 and GDC-0152 separately and in combination with […] on the cell viability of human KRAS-WT and -mutant cells were assessed using a colony formation assay. (L, M) A549 and NCI-H2122 cells were instantaneously transfected with siPTPN11 and siXIAP separately and together for 24 h under

[4] = molecular target: T2, VHR (Homo sapiens, UniProt P51452); test: PTPs activity assay (DiFMUP); format: biochemical
T2 construct: His; made in house; host or cells: E. coli
Protocol: (§1) Catalytic activity screening methods for PTPs using candidate compounds were performed as previously described.^[ [77] ^] In brief, soluble fusion PTP proteins, His‐ΔSHP2, encompassing the peptide from amino acids 205–593 retaining PTP activity, His‐ΔSHP2^K325A, His‐ΔSHP1, encompassing the peptide from amino acids 202–595 retaining PTP activity, His‐PTP1B, His‐HePTP, His‐VHR, and His‐TCPTP were cloned, expressed, and purified in E. coli. After determining protein concentration using bicinchoninic acid (BCA) assay kit, 1 µg fusion protein, 10 µM library compound were added in 100 µL reaction mixture (55 mM 4‐(2‐hydroxyethyl)‐1‐piperazineethanesulfonic acid [HEPES], 100 mM sodium chloride [NaCl], 0.5 mM ethylenediaminetetraacetic acid [EDTA], 1 mM dithiothreitol [DTT], 0.01% Triton X‐100, 0.002% bovine serum albumin [BSA], and 0.1% dimethyl sulfoxide [DMSO]) and incubated at 37 °C for 30 min in the dark, with Na3VO4 as positive control. The detection substrate DiFMUP (50 µM) was promptly added to each reaction and functioned at 37 °C for 30 min in the dark. The fluorescence intensity was then measured using Multimode Plate Reader (λa = 358 nm, λe = 455 nm, PerkinElmer, USA).

[5] = molecular target: T3, TCPTP (Homo sapiens, UniProt P17706); test: PTPs activity assay (DiFMUP); format: biochemical
T3 construct: His; made in house; host or cells: E. coli
T3 sequence (P17706 1-415): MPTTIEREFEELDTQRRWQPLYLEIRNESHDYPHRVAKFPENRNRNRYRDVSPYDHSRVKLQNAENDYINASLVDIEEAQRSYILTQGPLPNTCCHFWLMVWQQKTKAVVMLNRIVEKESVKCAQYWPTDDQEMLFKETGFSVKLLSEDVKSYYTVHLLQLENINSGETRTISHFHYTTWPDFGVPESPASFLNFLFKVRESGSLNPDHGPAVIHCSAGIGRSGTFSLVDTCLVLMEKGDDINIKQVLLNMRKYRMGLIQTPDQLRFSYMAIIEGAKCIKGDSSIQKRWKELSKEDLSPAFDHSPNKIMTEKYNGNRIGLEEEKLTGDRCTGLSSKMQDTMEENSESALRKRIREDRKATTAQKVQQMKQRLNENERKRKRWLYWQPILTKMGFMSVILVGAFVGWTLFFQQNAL
Protocol: as §1

[6] = molecular target: T4, HePTP (Homo sapiens, UniProt P35236); test: PTPs activity assay (DiFMUP); format: biochemical
T4 construct: His; made in house; host or cells: E. coli
T4 sequence (P35236 1-360): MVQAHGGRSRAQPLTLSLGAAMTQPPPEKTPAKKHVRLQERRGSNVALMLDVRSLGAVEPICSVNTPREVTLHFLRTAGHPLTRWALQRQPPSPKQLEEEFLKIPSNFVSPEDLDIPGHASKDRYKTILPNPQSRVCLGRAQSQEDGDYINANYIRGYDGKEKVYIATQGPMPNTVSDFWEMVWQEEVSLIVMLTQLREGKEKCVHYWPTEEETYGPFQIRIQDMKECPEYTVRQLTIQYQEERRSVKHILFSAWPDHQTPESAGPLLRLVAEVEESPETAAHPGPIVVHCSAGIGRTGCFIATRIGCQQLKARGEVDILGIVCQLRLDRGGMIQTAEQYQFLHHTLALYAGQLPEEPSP
Protocol: as §1

[7] = molecular target: T5, ΔSHP2 (Homo sapiens, UniProt Q06124); test: PTPs activity assay (DiFMUP); format: biochemical
T5 construct: His‐ΔSHP2, encompassing the peptide from amino acids 205–593 retaining PTP activity; His; made in house; host or cells: E. coli
T5 sequence (Q06124 205-593): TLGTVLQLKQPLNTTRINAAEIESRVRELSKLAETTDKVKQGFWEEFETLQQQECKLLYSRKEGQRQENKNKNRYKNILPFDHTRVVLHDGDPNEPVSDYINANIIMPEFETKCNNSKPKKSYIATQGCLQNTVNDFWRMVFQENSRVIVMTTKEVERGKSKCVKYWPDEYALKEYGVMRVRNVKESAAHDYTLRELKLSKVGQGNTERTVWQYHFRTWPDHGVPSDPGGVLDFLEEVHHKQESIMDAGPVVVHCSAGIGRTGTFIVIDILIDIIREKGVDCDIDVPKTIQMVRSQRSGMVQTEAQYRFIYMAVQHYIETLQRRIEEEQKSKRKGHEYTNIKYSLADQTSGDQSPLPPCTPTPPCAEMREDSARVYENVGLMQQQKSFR
Protocol: as §1

[8] = molecular target: T6, ΔSHP1 (Homo sapiens, UniProt P29350); test: PTPs activity assay (DiFMUP); format: biochemical
T6 construct: His‐ΔSHP1, encompassing the peptide from amino acids 202–595 retaining PTP activity; His; made in house; host or cells: E. coli
Protocol: as §1

[9] = molecular target: T7, PTP1B (Homo sapiens, UniProt P18031); test: PTPs activity assay (DiFMUP); format: biochemical
T7 construct: His; made in house; host or cells: E. coli
T7 sequence (P18031 1-435): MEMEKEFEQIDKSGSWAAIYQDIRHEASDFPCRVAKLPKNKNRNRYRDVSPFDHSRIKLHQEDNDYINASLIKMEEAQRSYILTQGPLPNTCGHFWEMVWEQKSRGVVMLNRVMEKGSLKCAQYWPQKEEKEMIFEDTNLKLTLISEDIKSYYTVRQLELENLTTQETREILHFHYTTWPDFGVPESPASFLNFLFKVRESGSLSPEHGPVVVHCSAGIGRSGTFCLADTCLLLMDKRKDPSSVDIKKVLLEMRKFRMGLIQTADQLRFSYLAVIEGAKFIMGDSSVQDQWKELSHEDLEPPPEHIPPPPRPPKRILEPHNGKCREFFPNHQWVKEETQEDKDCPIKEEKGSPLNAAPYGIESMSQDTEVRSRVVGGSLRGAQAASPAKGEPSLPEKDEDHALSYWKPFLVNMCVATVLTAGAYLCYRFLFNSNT
Protocol: as §1

T2 sequence (P51452 whole entry): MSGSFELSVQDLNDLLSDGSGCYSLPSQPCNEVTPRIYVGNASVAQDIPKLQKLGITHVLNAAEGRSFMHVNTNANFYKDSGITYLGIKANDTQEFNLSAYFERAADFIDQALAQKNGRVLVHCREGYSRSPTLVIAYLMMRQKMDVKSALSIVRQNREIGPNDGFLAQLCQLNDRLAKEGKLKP
T6 sequence (P29350 202-595, stated change not applied): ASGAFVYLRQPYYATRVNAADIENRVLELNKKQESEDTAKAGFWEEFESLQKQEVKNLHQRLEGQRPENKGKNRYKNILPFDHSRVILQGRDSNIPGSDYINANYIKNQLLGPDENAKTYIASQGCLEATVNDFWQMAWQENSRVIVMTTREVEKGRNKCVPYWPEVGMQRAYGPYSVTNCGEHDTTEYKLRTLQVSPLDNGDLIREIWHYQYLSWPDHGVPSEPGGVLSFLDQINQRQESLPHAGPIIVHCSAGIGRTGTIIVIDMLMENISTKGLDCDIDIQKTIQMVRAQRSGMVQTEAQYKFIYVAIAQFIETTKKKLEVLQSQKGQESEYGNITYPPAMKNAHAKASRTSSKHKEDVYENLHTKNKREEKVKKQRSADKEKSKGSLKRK

SMILES | induction of cell senescence [1] | effect on SHP2 protein stability (CETSA) [2] | effect on cell proliferation in monolayer cell culture mode [3] | IC50 [4] | IC50 [5] | IC50 [6] | IC50 [7] | IC50 [8] | IC50 [9] | IC50 ([9]; read-out: IC50 of PTPs PTP1B)
CN[C@@H](C)C(=O)N[C@H](C(=O)N1CCC[C@H]1C(=O)N[C@H](C(=O)NCCCCCCNC(=O)[C@@H](NC(=O)[C@@H]1CCCN1C(=O)[C@@H](NC(=O)[C@H](C)NC)C1CCCCC1)C(c1ccccc1)c1ccccc1)C(c1ccccc1)c1ccccc1)C1CCCCC1 [BV‐6] (I: H-[NMeA][Chg]P[Dip] / II: H-[NMeA][Chg]P[Dip]; linker I:C-II:C via Hexamethylenediamine) | induced cellular senescence | did not affect SHP2 protein stability | partially inhibited cell proliferation |  |  |  |  |  |  | 
CC[C@H](NC(=O)[C@H](C)NC)C(=O)N1C[C@@H](O)C[C@H]1Cc1c(-c2[nH]c3cc(F)ccc3c2C[C@@H]2C[C@H](O)CN2C(=O)[C@H](CC)NC(=O)[C@H](C)NC)[nH]c2cc(F)ccc12 [Birinapant] | induced cellular senescence | did not affect SHP2 protein stability | almost no effect |  |  |  |  |  |  | 
CC(C)=CCC[C@]1(C)C=Cc2c(O)c3c(c(CC=C(C)C)c2O1)O[C@]12C(=C[C@@H]4C[C@H]1C(C)(C)O[C@@]2(C/C=C(/C)C(=O)O)C4=O)C3=O [S2448, Gambogic acid] |  |  |  | 123 µM | 294 µM | > 200 µM | 11.8 µM | > 200 µM | 30.3 µM | 
Cc1cc2c(C(C)C)c(O)c(O)c(C=O)c2c(O)c1-c1c(C)cc2c(C(C)C)c(O)c(O)c(C=O)c2c1O [S2812, AT101] |  |  |  | 141 µM | 197 µM | 135 µM | 39.5 µM | 197 µM |  | 77.6 µM
CC1(C)CCC2=C(O1)c1ccccc1C(=O)C2=O [S7261, β‐Lapachone] |  |  |  | > 200 µM | > 200 µM | > 200 µM | 34.2 µM | > 200 µM |  | > 200 µM
CC1(C)CCC(CN2CCN(c3ccc(C(=O)NS(=O)(=O)c4ccc(NCC5CCOCC5)c([N+](=O)[O-])c4)c(Oc4cnc5[nH]ccc5c4)c3)CC2)=C(c2ccc(Cl)cc2)C1 [S8048, Venetoclax] |  |  |  | 36.9 µM | 9.43 µM | 20 µM | 2.07 µM | 81.3 µM |  | 16.6 µM
